Data set [1] concerns the target T1, Amine oxidase [flavin-containing] A (Homo sapiens, UniProt P21397).
T1 sequence (P21397 whole entry): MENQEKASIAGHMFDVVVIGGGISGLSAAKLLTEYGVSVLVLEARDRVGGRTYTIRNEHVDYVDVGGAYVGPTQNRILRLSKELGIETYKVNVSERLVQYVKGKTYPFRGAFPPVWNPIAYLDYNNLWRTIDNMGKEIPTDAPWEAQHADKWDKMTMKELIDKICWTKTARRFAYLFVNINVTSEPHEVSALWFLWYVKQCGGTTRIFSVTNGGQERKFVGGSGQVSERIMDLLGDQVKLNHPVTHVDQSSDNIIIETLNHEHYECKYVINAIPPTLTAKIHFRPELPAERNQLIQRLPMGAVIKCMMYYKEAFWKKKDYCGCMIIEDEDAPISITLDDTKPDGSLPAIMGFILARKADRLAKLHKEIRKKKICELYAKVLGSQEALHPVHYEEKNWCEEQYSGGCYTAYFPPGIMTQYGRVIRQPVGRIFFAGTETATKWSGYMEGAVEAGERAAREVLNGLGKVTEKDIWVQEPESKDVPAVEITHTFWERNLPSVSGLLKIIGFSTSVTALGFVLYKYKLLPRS
Briefly: Inhibition of MAOA (unknown origin) using luminogenic substrate incubated for 1 hr by luminescence based assay.

Data set [2] addresses T2, MAOB (amine oxidase [flavin-containing] B) (Homo sapiens, UniProt P27338).
T2 sequence (P27338 whole entry): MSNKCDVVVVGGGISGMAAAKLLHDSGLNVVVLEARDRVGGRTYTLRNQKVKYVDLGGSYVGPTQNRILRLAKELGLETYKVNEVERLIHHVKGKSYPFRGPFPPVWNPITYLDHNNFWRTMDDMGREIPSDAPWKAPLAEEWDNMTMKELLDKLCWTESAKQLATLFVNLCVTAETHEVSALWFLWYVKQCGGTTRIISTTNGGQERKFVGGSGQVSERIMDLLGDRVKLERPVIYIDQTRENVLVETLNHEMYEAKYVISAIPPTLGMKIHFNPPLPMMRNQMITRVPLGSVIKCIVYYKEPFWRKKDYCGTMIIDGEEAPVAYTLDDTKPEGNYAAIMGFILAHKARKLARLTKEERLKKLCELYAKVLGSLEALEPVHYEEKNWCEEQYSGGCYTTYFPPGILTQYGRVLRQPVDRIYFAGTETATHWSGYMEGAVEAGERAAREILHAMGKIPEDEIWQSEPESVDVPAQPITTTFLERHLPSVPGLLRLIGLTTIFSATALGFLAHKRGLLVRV
Briefly: Inhibition of MAOB (unknown origin) using luminogenic substrate at 10 uM incubated for 1 hr by luminescence based assay relative to control. The following applies: MAOB enzyme (unknown origin), probe luminogenic substrate.

In data set [3] the target is T3, Spermine oxidase (Homo sapiens, UniProt Q9NWM0). The experiment in a line: Inhibition of SMOX (unknown origin) assessed as decrease in spermidine formation using spermine as substrate at 10 uM treated with compound 2 mins prior to substrate addition followed by further incubation for 1 hr by HPLC analysis relative to control.
T3 sequence (Q9NWM0 whole entry): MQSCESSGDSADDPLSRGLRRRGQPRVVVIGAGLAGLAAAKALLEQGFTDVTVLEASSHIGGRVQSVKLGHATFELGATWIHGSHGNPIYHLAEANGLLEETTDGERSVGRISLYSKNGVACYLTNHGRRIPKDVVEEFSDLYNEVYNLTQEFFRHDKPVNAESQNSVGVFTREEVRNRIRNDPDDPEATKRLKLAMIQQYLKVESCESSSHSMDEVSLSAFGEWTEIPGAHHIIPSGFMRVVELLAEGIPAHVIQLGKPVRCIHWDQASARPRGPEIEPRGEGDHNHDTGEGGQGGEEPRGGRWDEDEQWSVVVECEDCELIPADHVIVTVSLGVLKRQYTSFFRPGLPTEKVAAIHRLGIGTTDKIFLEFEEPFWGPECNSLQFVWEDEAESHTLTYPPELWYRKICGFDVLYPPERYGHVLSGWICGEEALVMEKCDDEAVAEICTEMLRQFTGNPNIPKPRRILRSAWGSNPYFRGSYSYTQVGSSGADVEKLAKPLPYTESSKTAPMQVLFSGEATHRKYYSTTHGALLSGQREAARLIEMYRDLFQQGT
Data set [4] addresses T3, Spermine oxidase. The experiment in a line: Inhibition of SMOX (unknown origin) assessed as decrease in spermidine formation using spermine as substrate treated with compound 2 mins prior to substrate addition followed by further incubation for 1 hr by HPLC analysis.
For data set [5], the target named is Peroxisomal N(1)-acetyl-spermine/spermidine oxidase (Homo sapiens, UniProt Q6QHF9). The experiment in a line: Inhibition of PAOX (unknown origin) assessed as decrease in spermidine formation using N-acetylspermine as substrate treated with compound 2 mins prior to substrate addition followed by further incubation for 1 hr by HPLC analysis.
Sequence of Peroxisomal N(1)-acetyl-spermine/spermidine oxidase (Q6QHF9 whole entry): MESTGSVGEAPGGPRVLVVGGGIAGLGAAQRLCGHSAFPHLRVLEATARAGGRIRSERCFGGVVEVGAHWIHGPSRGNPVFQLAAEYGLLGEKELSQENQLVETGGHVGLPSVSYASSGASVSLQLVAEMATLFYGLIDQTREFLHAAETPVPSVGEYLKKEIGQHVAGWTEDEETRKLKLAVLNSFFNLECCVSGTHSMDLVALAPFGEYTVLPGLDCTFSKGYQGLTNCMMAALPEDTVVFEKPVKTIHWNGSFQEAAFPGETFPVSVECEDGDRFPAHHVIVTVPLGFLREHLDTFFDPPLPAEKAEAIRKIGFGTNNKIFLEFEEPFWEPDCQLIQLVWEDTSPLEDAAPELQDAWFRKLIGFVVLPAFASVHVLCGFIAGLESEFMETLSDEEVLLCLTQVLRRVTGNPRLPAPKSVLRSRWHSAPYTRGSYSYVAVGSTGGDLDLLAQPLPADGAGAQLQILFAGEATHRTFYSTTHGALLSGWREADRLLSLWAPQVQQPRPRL
For another data set, the target named is LSD1/CoREST complex (Homo sapiens, UniProt O60341). Briefly: Inhibition of recombinant LSD1/CoREST (unknown origin) incubated for 30 mins to 4 hrs by fluorescence based assay. It counts as protein-complex assay.
In data set [6] the target is T4, MAOA (amine oxidase [flavin-containing] A) (Homo sapiens, UniProt P21397).
T4 sequence (P21397 whole entry): T1 sequence (P21397 whole entry)
The experiment in a line: Inhibition of MAOA (unknown origin) using luminogenic substrate at 10 uM incubated for 1 hr by luminescence based assay relative to control. As to conditions: MAOA enzyme (unknown origin), probe luminogenic substrate.

Data set [7] addresses T5, Amine oxidase [flavin-containing] B (Homo sapiens, UniProt P27338).
T5 sequence (P27338 whole entry): T2 sequence (P27338 whole entry)
The experiment in a line: Inhibition of MAOB (unknown origin) using luminogenic substrate incubated for 1 hr by luminescence based assay.

Another data set in a line: cells. As to conditions: Homo sapiens, MIA PaCa-2, 72 h.
Data set [8] concerns BXPC-3. Briefly: cells. As to conditions: Homo sapiens, BXPC-3, 72 h.
Description: Antiproliferative activity against human BxPC3 cells assessed as reduction in cell growth incubated for 72 hrs by MTS assay
The subject of data set [9] is BXPC-3. Briefly: Antiproliferative activity against human BxPC3 cells assessed as reduction in cell growth at 10 to 100 uM incubated for 72 hrs by MTS assay relative to control. It counts as functional. On the technique in general: Tetrazolium dyes change colour on reduction, which living cells bring about.
Data set [10] concerns the target T3, Spermine oxidase. The experiment in a line: Potency index, ratio of MDL72527 IC50 to compound IC50 for SMOX (unknown origin) using spermine as substrate treated with compound 2 mins prior to substrate addition followed by further incubation for 1 hr by HPLC analysis.
Another data set relates to RAW264.7. The experiment in a line: Inhibition of reactive oxygen species formation in mouse RAW264.7 cells infected with Helicobacter pylori. The class given is functional, cell-based.

We go through 17 molecules from ChEMBL document CHEMBL4373629, “Dual inhibitors of LSD1 and spermine oxidase” (Medchemcomm, 2019).

The source made the active and inactive calls. No cut-off for these calls is given here. A value given as a limit tells only on which side of the number the result lay.

Regarding `Cc1ccc(C(C)C)c(Oc2ccccc2CNc2nc(N)n[nH]2)c1`, the IC50 in [1] was 55.5 µM; at Spermine oxidase [4] it was over 200 µM; in data set [5] it was over 200 µM. For the same molecule, the inhibition at 1 h, 10 µM in data set [2] is 49.7%. For the same molecule, on Spermine oxidase [3], the inhibition was found to be 13.9%.

For the molecule `CSc1ccc(Oc2ccccc2CNc2nc(N)n[nH]2)cc1`, the results for the IC50 (in data set [1]; at Spermine oxidase [4]; in [5]) were 38.4 µM, over 200 µM and over 200 µM, respectively. In data set [2], the inhibition at 1 h, 10 µM worked out at 31.7%. Also, the inhibition on Spermine oxidase [3] was found to be 0%.

For `Nc1n[nH]c(NCc2ccccc2Oc2ccc(F)cc2)n1`, the IC50 in data set [1] was 89.3 µM; at Spermine oxidase [4], over 200 µM; in data set [5], over 200 µM. For the same molecule, the inhibition at 1 h, 10 µM in [2] turned out to be 40.7%. Besides, on Spermine oxidase [3], the inhibition came to 0%.

For `Nc1n[nH]c(NCc2c(Cl)cccc2Oc2cccc3ccccc23)n1`, the IC50 at LSD1/CoREST complex was 0.19 to 0.23 µM; in [1], over 200 µM; in data set [7], over 200 µM; on Spermine oxidase [4] it was 148 µM; in “cells” it was 30 to 200 µM; in the data set with BXPC-3 [8], over 100 µM. The inhibition at 1 h, 10 µM came to 0% in data set [6] and 7.12% in data set [2]. For the same molecule, on Spermine oxidase [3], the inhibition stood at 19%.

As to `Nc1ccn([C@@H]2O[C@H](CO)[C@@H](O)C2(F)F)c(=O)n1` [GEMCITABINE], in the data set on BXPC-3 [9], the “inhibition (INH)” value worked out at 30%. In addition, the IC50 in the data set “cells” came out at 1.86 µM; with BXPC-3 [8], 5.71 µM.

With `N[C@@H]1C[C@H]1c1ccccc1.N[C@H]1C[C@@H]1c1ccccc1`, the inhibition on Spermine oxidase [3] is 0%.

`Nc1n[nH]c(NCc2ccccc2Oc2ccc(-c3ccccc3)cc2)n1`: the IC50 in [1] was 50 µM; on Spermine oxidase [4], 25.7 µM; in [5], over 200 µM; in the data set “cells”, 30 to 200 µM; with BXPC-3 [8], 61.5 µM. The same molecule came in with an inhibition at 1 h, 10 µM in [2] of 26.4%. Besides, at Spermine oxidase [3], the inhibition was 25.7%. Besides, the Ratio IC50 on Spermine oxidase [10] was 3.5.

Take `COc1cc(OC)cc(Oc2ccccc2CNc2nc(N)n[nH]2)c1`: the inhibition at 1 h, 10 µM in [6] came to 0%; in data set [2], 17.1%. Besides, the IC50 (in data set [1]; on Spermine oxidase [4]; in data set [5]) was over 200 µM in each case. Besides, at Spermine oxidase [3], the inhibition worked out at 0%.

Consider `C=C=CCNCCCCNCC=C=C`, for which the IC50 on LSD1/CoREST complex was over 100 µM; in [1], over 200 µM; in [7], over 200 µM; at Spermine oxidase [4] it was 89.7 µM. Also, the inhibition at 1 h, 10 µM in data set [6] and in data set [2] was 0% throughout. At Spermine oxidase [3], the inhibition was found to be 4.8%.

As to `Cc1cc(C)cc(Oc2ccccc2CNc2nc(N)n[nH]2)c1`, the IC50 in data set [1] is 91.4 µM; on Spermine oxidase [4] it was over 200 µM; in data set [5] it was over 200 µM. Also, the inhibition at 1 h, 10 µM in data set [2] amounted to 83.4%. In addition, the inhibition at Spermine oxidase [3] is 0%.

In the case of `Nc1n[nH]c(NCc2ccccc2Oc2ccccc2)n1`, the IC50 in [1] was 50.2 µM; on Spermine oxidase [4] it was over 200 µM; in [5], over 200 µM. Moreover, the inhibition at 1 h, 10 µM in data set [2] worked out at 18.8%. The inhibition on Spermine oxidase [3] was 0%.

Regarding `Nc1n[nH]c(NCc2ccccc2Oc2ccc(Br)cc2C(F)(F)F)n1`, the IC50 in data set [1] was 3 µM; on Spermine oxidase [4], 121 µM; in [5], over 200 µM; in “cells” it was 30 to 200 µM; with BXPC-3 [8], over 100 µM. Besides, the inhibition at 1 h, 10 µM in data set [2] came to 90.1%. Further, the inhibition on Spermine oxidase [3] was determined as 0%.

Take `Nc1n[nH]c(NCc2ccccc2Oc2ccc3ccccc3c2)n1`: the IC50 in data set [1] is 79.2 µM; at Spermine oxidase [4], over 200 µM; in data set [5], over 200 µM. Besides, the inhibition at 1 h, 10 µM in data set [2] is 81.6%. Moreover, at Spermine oxidase [3], the inhibition is 0%.

On to `Nc1n[nH]c(NCc2c(Cl)cccc2Oc2ccc3ccccc3c2)n1`, for which the inhibition at 1 h, 10 µM in [6] and in data set [2] was 0% each time. Also, the IC50 in data set [1] was over 200 µM; in [7], over 200 µM; at Spermine oxidase [4], 163 µM. Moreover, the inhibition on Spermine oxidase [3] stood at 23.6%.

Turning to `Cc1cccc(Oc2ccccc2CNc2nc(N)n[nH]2)c1C`, the figures for the inhibition at 1 h, 10 µM in data set [6] and in data set [2] were 0% and 68.6%, respectively. The IC50 (in [1]; on Spermine oxidase [4]; in data set [5]) was over 200 µM in each case. For the same molecule, at Spermine oxidase [3], the inhibition came to 0%.

For `Nc1nnc(NCc2c(Cl)cccc2Oc2ccccc2)[nH]1`, the inhibition at 1 h, 10 µM in [6] and in data set [2] was 0% each time. Further, the IC50 in [1] is over 200 µM; in data set [7], over 200 µM; at Spermine oxidase [4], 178 µM; in the data set “cells”, 2.66 µM. Further, the inhibition at Spermine oxidase [3] worked out at 28%. Also, the inhibition result in the data set with RAW264.7 was “Active”.

For `CC(C)(C)c1ccc(Oc2ccccc2CNc2nc(N)n[nH]2)cc1`, the IC50 is 61.5 µM in data set [1], over 200 µM on Spermine oxidase [4] and over 200 µM in [5]. This molecule yielded an inhibition at 1 h, 10 µM in data set [2] of 32.3%. For the same molecule, the inhibition on Spermine oxidase [3] was 0%.

Usually IC50 stands for the midpoint of a concentration-inhibition curve. What is called inhibition is the relative decrease from the control value, in per cent.
